Data taken from patent US7833940B2, “2-(substituted phenyl)-6-hydroxy or alkoxy-5-substituted-4-pyrimidinecarboxylates and their use as herbicides” (Dow AgroSciences LLC, priority 2008, dated 2010).

Columns and labels:
[1] = system: Lambsquarters (Chenopodium album); assay: General postemergence herbicidal activity, CHEAL; assay type: in vivo; settings: post-emergent, 280 g ai/ha, visual score after 14 days (0 = no injury, 100 = complete kill)
Experimental: (§1) Seeds or nutlets of the desired test plant species were planted in Sun Gro MetroMix® 306 planting mixture, which typically has a pH of 6.0 to 6.8 and an organic matter content of about 30 percent, in plastic pots with a surface area of 64 square centimeters. When required to ensure good germination and healthy plants, a fungicide treatment and/or other chemical or physical treatment was applied. The plants were grown for 7-21 days in a greenhouse with an approximate 15 hour photoperiod which was maintained at about 23-29° C. during the day and 22-28° C. during the night. Nutrients and water were added on a regular basis and supplemental lighting was provided with overhead metal halide 1000-Watt lamps as necessary. The plants were employed for testing when they reached the first or second true leaf stage.
(§2) A weighed amount, determined by the highest rate to be tested, of each test compound was dissolved in 4 mL of a 97:3 v/v (volume/volume) mixture of acetone and dimethyl sulfoxide (DMSO) to obtain concentrated stock solutions. […] The concentrated stock solutions obtained were diluted with 20 mL of an aqueous mixture containing acetone, water, isopropyl alcohol, DMSO, Atplus 411F crop oil concentrate, and Triton® X-155 surfactant in a 48.5:39:10:1.5:1.0:0.02 v/v ratio to obtain spray solutions containing the highest application rates. […]
(§3) The treated plants and control plants were placed in a greenhouse as described above and watered by sub-irrigation to prevent wash-off of the test compounds. After 14 days, the condition of the test plants as compared with that of the untreated plants was determined visually and scored on a scale of 0 to 100 percent where 0 corresponds to no injury and 100 corresponds to complete kill.

[2] = system: Redroot Pigweed (Amatanthus retroflexus); assay: General postemergence herbicidal activity, AMARE; assay type: in vivo; settings: post-emergent, 280 g ai/ha, visual score after 14 days (0 = no injury, 100 = complete kill)
Experimental: as §1, §2, §3

[3] = system: Common Sunflower (Helianthus annuus); assay: General postemergence herbicidal activity, HELAN; assay type: in vivo; settings: post-emergent, 280 g ai/ha, visual score after 14 days (0 = no injury, 100 = complete kill)
Experimental: as §1, §2, §3

[4] = system: Wild Pointsettia (Euphorbia heterophylla); assay: General postemergence herbicidal activity, EPHHL; assay type: in vivo; settings: post-emergent, 280 g ai/ha, visual score after 14 days (0 = no injury, 100 = complete kill)
Experimental: as §1, §2, §3

Compound	melting point [°C]	% Growth Reduction CHEAL [1] [%]	% Growth Reduction AMARE [2] [%]	% Growth Reduction HELAN [3] [%]	% Growth Reduction EPHHL [4] [%]
COC(=O)c1nc(-c2ccc(Cl)c(OC)c2F)nc(O)c1Cl [Compound 1, 6-hydroxy-2-(4-chloro-2-fluoro-3-methoxyphenyl)-5-chloropyrimidine-4-carboxylic acid methyl ester]	215 to 217	100	100	90	100
COC(=O)c1nc(-c2ccc(Cl)c(OC)c2F)nc(O)c1Br [Compound 2, 6-hydroxy-2-(4-chloro-2-fluoro-3-methoxyphenyl)-5-bromopyrimidine-4-carboxylic acid methyl ester]	192 to 195	95	100	85	100
COC(=O)c1nc(-c2ccc(Cl)c(OC)c2F)nc(O)c1OC [Compound 3, 6-hydroxy-2-(4-chloro-2-fluoro-3-methoxyphenyl)-5-methoxypyrimidine-4-carboxylic acid methyl ester]	177 to 179	90	40	10	100
